Laboratory results as given in patent US6849632B2, “Heteroaryl alkyl piperazine derivatives” (CV Therapeutics, Inc., priority 2000, dated 2005).

Columns and labels:
[1] = system: mitochondrial fatty acid oxidation using palmitoyl CoA as substrate; test: Palmitoyl CoA oxidation in isolated rat heart mitochondria; type: biochemical; conditions: for Inhibition of mitochondrial fatty acid oxidation using palmitoyl CoA as substrate - % of Control, 100 μm (%): 100 μm compound, 15 min at 30° C.
Procedure: Rat heart mitochondria were isolated by the method of Nedergard and Cannon (Methods in Enzymol. 55, 3, 1979). Palmitoyl CoA oxidation—The Palmityl CoA oxidation was carried out in a total volume of 100 micro liters containing the following agents: 110 mM KCl, 33 mM Tris buffer at pH 8, 2 mM KPi, 2 mM MgCl2, 0.1 mM EDTA, 14.7 microM defatted BSA, 0.5 mM malic acid, 13 mM carnitine, 1 mM ADP, 52 micrograms of mitochondrial protein, and 16 microM 1-C14 palmitoyl CoA (Sp. Activity 60 mCi/mmole; 20 microCi/ml, using 5 microliters per assay). The compounds of this invention were added in a DMSO solution at the following concentrations: 100 microM, and 50 microM. In each assay, a DMSO control was used. After 15 min at 30° C., the enzymatic reaction was centrifuged (20,000 g for 1 min), and 70 microliters of the supernatant was added to an activated reverse phase silicic acid column (approximately 0.5 ml of silicic acid). The column was eluted with 2 ml of water, and 0.5 ml of the eluent was used for scintillation counting to determine the amount of C^14 trapped as C^14 bicarbonate ion.

[2] = Metabolic stability, incubation with human liver S-9 fractions; type: in vitro ADME; conditions: % parent remaining after 30 min at 37 C with human liver S9, divided by average % ranolazine remaining (57%)
Procedure: Metabolic Stability: As a measure of metabolic stability the compounds of this invention were incubated with human liver S-9 microsomal fractions. After, 30 minutes at 37 C, the amount of parent drug remaining was determined using LC-mass spec. The response factors for each compound was determined by establishing a standard curve and using an internal standard during the analysis of the samples. An average of five experiments for percentage of ranolazine remaining at the 30 minute time point is 57%. The compounds of this invention were assayed as described in the protocol below and the percentage of parent remaining was divided by the average % of ranolazine remaining (57%) affording a metabolic stability factor. A compound with a stability number greater than 1.2 has a better stability than ranolazine in the liver S-9 assay. A compound with a stability number between 1.2 and 0.8 has an equivalent stability in the liver S-9 assay.
The purpose of this experiment is to compare the percentages remaining for compounds of this invention with the percentage remaining for ranolazine after 30 minutes of incubation with human liver S9 fractions.
The following reagents were used; Potassium phosphate, 0.5M pH 7.4 (incubation buffer), kept at room temperature; 0.05M MgCl^2 kept at 4° C.; β-Nicotinamide adenine dinucleotide phosphate, tetrasodium salt, reduced form (NADPH), 0.02M solution in water (˜16.6 mg/mL) from Sigma Lot #79H7044 prepared on day of use. 1 mM of ranolazine or Compounds 43, 45, 47, 52, 70, 74, 76, 78, and 80 in ACN further diluted to obtain 100 μM in 10% ACN; Human S9 stock: 20 mg/mL from Gentest.
Incubation mixtures were prepared as follows:
Combine all components with incubation buffer and re-pipette 200 μL/tube+25 μL of the compound being tested along with 25 μL of S-9.
After 5 min of pre-incubation at 37° C., at 0 and 30 min after starting the reaction, a 50 μl aliquot of the incubation mixture was removed and added to 100 μL of 9:1 acetonitrile:methanol containing the internal standard.
The mixture was centrifuged and a 100 μL aliquot of the supernatant was diluted in 1 mL of solvent C (0.1% Formic Acid in water). Then samples were analyzed for change between the ratio of compound to internal standard at time zero and 30 minutes by LC/MS (injected 10 μL).
Samples were analyzed for the starting compounds and potential metabolite/s by LC/MS using an internal standard and an ODS-C18 column with a flow rate of 0.25 ml/min.

## Cc1cccc(C)c1NC(=O)CN1CCN(CC(O)COc2nc3ccccc3s2)CC1 (stereo not shown) [Compound 43, 2-{4-[3-(benzothiazol-2-yloxy)-2-hydroxy-propyl]-piperazin-1-yl}-N-(2,6-dimethylphenyl)acetamide]
[1]
  Inhibition of mitochondrial fatty acid oxidation using palmitoyl CoA as substrate - % of Control, 100 μm (%): 21%
[2]
  Liver S9 Stability Factor: 0.6

## Cc1cccc(C)c1NC(=O)CN1CCN(CC(O)COc2ccc3ncsc3c2)CC1 (stereo not shown) [Compound 47, 2-{4-[3-(benzothiazol-6-yloxy)2-hydroxy-propyl]-piperazin-1-yl}-N-(2,6-dimethylphenyl)-acetamide]
[1]
  Inhibition of mitochondrial fatty acid oxidation using palmitoyl CoA as substrate - % of Control, 100 μm (%): 70%
[1]; Table 1, read-out: IC50 (μm), inhibition of mitochondrial fatty acid oxidation using palmitoyl CoA as substrate
  IC50: ~125 µM
[2]
  Liver S9 Stability Factor: 1.5

## Cc1ccc2ccc(OCC(O)CN3CCN(CC(=O)Nc4c(C)cccc4C)CC3)cc2n1 (stereo not shown) [Compound 80, N-(2,6-dimethylphenyl)-2-{4-[2-hydroxy-3-(2-methyl-quinolin-7-yloxy)-propyl]-piperazin-1-yl}acetamide]
[1]
  Inhibition of mitochondrial fatty acid oxidation using palmitoyl CoA as substrate - % of Control, 100 μm (%): 22%
[2]
  Liver S9 Stability Factor: 0.5
